# Assay results: US11117900B2 (Vertex Pharmaceuticals Incorporated, priority 2012, dated 2021)
# System: HCT116 colorectal cancer cells
# Assay: Cisplatin sensitization assay (96 h MTS cell viability);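 note: compound concentration needed to lower the IC50 of Cisplatin alone by a set fold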
# Type: cell-based
# Settings: Cisplatin sensitization value
# Experimental: Compounds can be screened for their ability to sensitize HCT116 colorectal cancer cells to Cisplatin using a 96 h cell viability (MTS) assay. […] Compounds and Cisplatin are then both added simultaneously to the cell media in 2-fold serial dilutions from a top final concentration of 10 μM as a full matrix of concentrations in a final cell volume of 200 μl, and the cells are then incubated at 37° C. in 5% CO2. After 96 h, 40 μl of MTS reagent (Promega G358a) is added to each well and the cells are incubated for 1 h at 37° C. in 5% CO2.
# Compounds with a Cisplatin sensitization value of <0.02 μM are marked with “+++.” Compounds with a Cisplatin sensitization value >0.02 μM but <0.2 μM are marked with “++.” Compounds with a Cisplatin sensitization value >0.2 μM but <5 μM are marked with “+.”
row,SMILES,Cisplatin Sensitization Assay
1,"Nc1nn2cc(F)cnc2c1C(=O)Nc1cnccc1N1CCN(C2CCOC2)CC1 (racemic) [I-N-19, (R,S)-2-amino-6-fluoro-N-(4-(4-(tetrahydrofuran-3-yl)piperazin-1-yl)pyridin-3-yl)pyrazolo[1,5-a]pyrimidine-3-carboxamide]",+++ (Compounds with a Cisplatin sensitization value of <0.02 μM are marked with “+++.”)
2,"N#CCc1cnc2c(C(=O)Nc3cnccc3OC3CCCNC3)c(N)nn2c1 (racemic) [I-O-2, (R,S)-2-amino-6-(cyanomethyl)-N-(4-(piperidin-3-yloxy)pyridin-3-yl)pyrazolo[1,5-a]pyrimidine-3-carboxamide]",++ (Compounds with a Cisplatin sensitization value >0.02 μM but <0.2 μM are marked with “++.”)
3,"Nc1nn2cc(F)cnc2c1C(=O)Nc1cnccc1OC1CN2CCC1CC2 (racemic) [I-O-6, (R,S)-2-amino-6-fluoro-N-(4-(quinuclidin-3-yloxy)pyridin-3-yl)pyrazolo[1,5-a]pyrimidine-3-carboxamide]",+++ (Compounds with a Cisplatin sensitization value of <0.02 μM are marked with “+++.”)
4,"Nc1nn2cc(F)cnc2c1C(=O)Nc1cnccc1OC1CCOC1 (racemic) [I-O-15, (R,S)-2-amino-6-fluoro-N-(4-((tetrahydrofuran-3-yl)oxy)pyridin-3-yl)pyrazolo[1,5-a]pyrimidine-3-carboxamide]",+++ (Compounds with a Cisplatin sensitization value of <0.02 μM are marked with “+++.”)
5,"N#CCc1cnc2c(C(=O)Nc3cnccc3OC3CCOC3)c(N)nn2c1 (racemic) [I-O-37, (R,S)-2-amino-6-(cyanomethyl)-N-(4-((tetrahydrofuran-3-yl)oxy)pyridin-3-yl)pyrazolo[1,5-a]pyrimidine-3-carboxamide]",+++ (Compounds with a Cisplatin sensitization value of <0.02 μM are marked with “+++.”)
6,"CN1CCC(c2ccncc2NC(=O)c2c(N)nn3cc(F)cnc23)CC1 [I-C-1, 2-amino-6-fluoro-N-(4-(1-methylpiperidin-4-yl)pyridin-3-yl)pyrazolo[1,5-a]pyrimidine-3-carboxamide]",++ (Compounds with a Cisplatin sensitization value >0.02 μM but <0.2 μM are marked with “++.”)
7,"Cc1ccncc1NC(=O)c1c(N)nn2cc(Cl)cnc12 [I-C-2, 2-amino-6-chloro-N-(4-methylpyridin-3-yl)pyrazolo[1,5-a]pyrimidine-3-carboxamide]",++ (Compounds with a Cisplatin sensitization value >0.02 μM but <0.2 μM are marked with “++.”)
8,"Cc1ccncc1NC(=O)c1c(N)nn2cc(F)cnc12 [I-C-4, 2-amino-6-fluoro-N-(4-methylpyridin-3-yl)pyrazolo[1,5-a]pyrimidine-3-carboxamide]",++ (Compounds with a Cisplatin sensitization value >0.02 μM but <0.2 μM are marked with “++.”)
9,"Nc1nn2cc(F)cnc2c1C(=O)Nc1cnccc1-c1ccccc1 [I-C-5, 2-amino-6-fluoro-N-(4-phenylpyridin-3-yl)pyrazolo[1,5-a]pyrimidine-3-carboxamide]",+++ (Compounds with a Cisplatin sensitization value of <0.02 μM are marked with “+++.”)
10,"N#CCc1cnc2c(C(=O)Nc3cnccc3-c3ccccc3)c(N)nn2c1 [I-C-6, 2-amino-6-(cyanomethyl)-N-(4-phenylpyridin-3-yl)pyrazolo[1,5-a]pyrimidine-3-carboxamide]",+++ (Compounds with a Cisplatin sensitization value of <0.02 μM are marked with “+++.”)
11,"Nc1nn2cc(F)cnc2c1C(=O)Nc1cncc2c1CCNC2 [I-C-7, 2-amino-6-fluoro-N-(5,6,7,8-tetrahydro-2,7-naphthyridin-4-yl)pyrazolo[1,5-a]pyrimidine-3-carboxamide]",++ (Compounds with a Cisplatin sensitization value >0.02 μM but <0.2 μM are marked with “++.”)
12,"CN1CCc2c(cncc2NC(=O)c2c(N)nn3cc(F)cnc23)C1 [I-C-8, 2-amino-6-fluoro-N-(7-methyl-5,6,7,8-tetrahydro-2,7-naphthyridin-4-yl)pyrazolo[1,5-a]pyrimidine-3-carboxamide]",+ (Compounds with a Cisplatin sensitization value >0.2 μM but <5 μM are marked with “+.”)
